Structures are written as SMILES.

This assay has as its system MV-4-11 cells. In words: Gene expression microarray analysis (Affymetrix PrimeView) and GSEA. In kind it is cell-based, human. On the set-up: RFU PODN (11730768_x_at) / Fold change /veh PODN (11730768_x_at) / RFU LINC00158 (11744669_a_at) / Fold change /veh LINC00158 (11744669_a_at) / RFU DUSP10 (11751237_a_at) / Fold change /veh DUSP10 (11751237_a_at) / RFU ID3 (11757404_x_at) / Fold change /veh ID3 (11757404_x_at) / RFU PLEKHG5 (11737974_s_at) / Fold change /veh PLEKHG5 (11737974_s_at) / RFU LRRC4B (11730491_at) / Fold change /veh LRRC4B (11730491_at) / RFU GIMAP4 (11747438_a_at) / Fold change /veh GIMAP4 (11747438_a_at) / RFU KRT8 (11758183_x_at) / Fold change /veh KRT8 (11758183_x_at) / RFU CNN1 (11734310_a_at) / Fold change /veh CNN1 (11734310_a_at) / RFU VPS37D (11726825_at) / Fold change /veh VPS37D (11726825_at) / RFU C10orf10 (11716522_x_at) / Fold change /veh C10orf10 (11716522_x_at) / RFU KIR2DL2 /// KIR2DL4 /// KIR2DL5A /// KIR2DL5B /// KIR2DS1 /// KIR2DS2 /// KIR2DS3 /// KIR2DS4 /// KIR3DL3 /// KIR3DL3 /// KIR3DS1 (11738374_at) / Fold change /veh KIR2DL2 /// KIR2DL4 /// KIR2DL5A /// KIR2DL5B /// KIR2DS1 /// KIR2DS2 /// KIR2DS3 /// KIR2DS4 /// KIR3DL3 /// KIR3DL3 /// KIR3DS1 (11738374_at) / RFU C1QL1 (11718748_at) / Fold change /veh C1QL1 (11718748_at) / RFU TMPRSS4 (11747572_a_at) / Fold change /veh TMPRSS4 (11747572_a_at) / RFU HAMP (11756126_x_at) / Fold change /veh HAMP (11756126_x_at) / RFU RNFT2 (11725882_a_at) / Fold change /veh RNFT2 (11725882_a_at) / RFU NR4A2 (11747474_a_at) / Fold change /veh NR4A2 (11747474_a_at) / RFU ABCC12 (11746883_a_at) / Fold change /veh ABCC12 (11746883_a_at) / RFU TMEM136 (11760407_x_at) / Fold change /veh TMEM136 (11760407_x_at) / RFU CLDN22 /// WWC2 (11732394_at) / Fold change /veh CLDN22 /// WWC2 (11732394_at) / RFU HLA-DPB1 (11760878_x_at) / Fold change /veh HLA-DPB1 (11760878_x_at) / RFU SPINT1 (11716480_a_at) / Fold change /veh SPINT1 (11716480_a_at) / RFU GAP43 (11754022_s_at) / Fold change /veh GAP43 (11754022_s_at) / RFU A4GNT (11735810_at) / Fold change /veh A4GNT (11735810_at) / RFU PRB3 (11715151_x_at) / Fold change /veh PRB3 (11715151_x_at) / RFU TUBB4B (11761932_at) / Fold change /veh TUBB4B (11761932_at) / RFU CAPN14 (11732068_a_at) / Fold change /veh CAPN14 (11732068_a_at) / RFU TMCC2 (11721928_a_at) / Fold change /veh TMCC2 (11721928_a_at) / RFU IRGQ (11745062_a_at) / Fold change /veh IRGQ (11745062_a_at) / RFU FAM174B (11720279_a_at) / Fold change /veh FAM174B (11720279_a_at) / RFU TMPRSS4 (11748680_a_at) / Fold change /veh TMPRSS4 (11748680_a_at) / RFU FAM212B (11763350_a_at) / Fold change /veh FAM212B (11763350_a_at) / RFU PLEKHG5 (11743358_a_at) / Fold change /veh PLEKHG5 (11743358_a_at) / RFU ZSCAN30 (11745921_a_at) / Fold change /veh ZSCAN30 (11745921_a_at) / RFU CMKLR1 (11741424_a_at) / Fold change /veh CMKLR1 (11741424_a_at) / RFU LOC101060620 /// MAPK8IP1 (11723275_at) / Fold change /veh LOC101060620 /// MAPK8IP1 (11723275_at) / RFU SPTSSB (11747773_x_at) / Fold change /veh SPTSSB (11747773_x_at) / RFU PRSS12 (11739890_at) / Fold change /veh PRSS12 (11739890_at) / RFU BIN1 (11741810_x_at) / Fold change /veh BIN1 (11741810_x_at) / RFU WNT11 (11732464_a_at) / Fold change /veh WNT11 (11732464_a_at) / RFU C10orf10 (11716521_a_at) / Fold change /veh C10orf10 (11716521_a_at) / RFU C5orf56 (11738089_at) / Fold change /veh C5orf56 (11738089_at) / RFU CYB561 (11721691_x_at) / Fold change /veh CYB561 (11721691_x_at) / RFU ANKRD19P (11752326_a_at) / Fold change /veh ANKRD19P (11752326_a_at) / RFU OR2T12 /// OR2T33 /// OR2T8 (11738714_s_at) / Fold change /veh OR2T12 /// OR2T33 /// OR2T8 (11738714_s_at) / RFU VCAN (11748164_a_at) / Fold change /veh VCAN (11748164_a_at) / RFU JSRP1 (11732532_at) / Fold change /veh JSRP1 (11732532_at) / RFU KRTAP10-11 (11738290_x_at) / Fold change /veh KRTAP10-11 (11738290_x_at) / RFU MYO3A (11730013_a_at) / Fold change /veh MYO3A (11730013_a_at) / RFU EBF3 (11725865_a_at) / Fold change /veh EBF3 (11725865_a_at) / RFU CAMK2N1 (11719241_x_at) / Fold change /veh CAMK2N1 (11719241_x_at) / RFU C5orf56 (11738088_a_at) / Fold change /veh C5orf56 (11738088_a_at) / RFU OLFML3 (11715873_a_at) / Fold change /veh OLFML3 (11715873_a_at) / RFU LOC100653217 /// NTM (11731650_a_at) / Fold change /veh LOC100653217 /// NTM (11731650_a_at) / RFU MAPK11 (11762145_a_at) / Fold change /veh MAPK11 (11762145_a_at) / RFU FIZ1 (11724087_x_at) / Fold change /veh FIZ1 (11724087_x_at) / RFU OASL (11726364_x_at) / Fold change /veh OASL (11726364_x_at) / RFU SOX15 (11748057_x_at) / Fold change /veh SOX15 (11748057_x_at) / RFU CD79A (11719716_a_at) / Fold change /veh CD79A (11719716_a_at) / RFU HIST1H1D (11736915_at) / Fold change /veh HIST1H1D (11736915_at) / RFU CASKIN2 (11723855_a_at) / Fold change /veh CASKIN2 (11723855_a_at) / RFU LOC730098 (11760151_x_at) / Fold change /veh LOC730098 (11760151_x_at) / RFU OR4N2 (11742367_at) / Fold change /veh OR4N2 (11742367_at) / RFU PRRT2 (11749266_a_at) / Fold change /veh PRRT2 (11749266_a_at) / RFU SNX32 (11753110_a_at) / Fold change /veh SNX32 (11753110_a_at) / RFU CDHR5 (11726645_a_at) / Fold change /veh CDHR5 (11726645_a_at) / RFU RCAN1 (11760418_a_at) / Fold change /veh RCAN1 (11760418_a_at) / RFU FAM167A (11723789_a_at) / Fold change /veh FAM167A (11723789_a_at) / RFU FAM26E (11764081_at) / Fold change /veh FAM26E (11764081_at) / RFU ISYNA1 (11749810_s_at) / Fold change /veh ISYNA1 (11749810_s_at) / RFU ACY1 (11761880_at) / Fold change /veh ACY1 (11761880_at) / RFU 11764098_at / Fold change /veh 11764098_at / RFU SAMD14 (11745864_x_at) / Fold change /veh SAMD14 (11745864_x_at) / RFU NPB (11741838_a_at) / Fold change /veh NPB (11741838_a_at) / RFU TMPRSS6 (11731388_a_at) / Fold change /veh TMPRSS6 (11731388_a_at) / RFU KRTAP10-2 (11738614_at) / Fold change /veh KRTAP10-2 (11738614_at) / RFU ARHGAP8 /// PRR5-ARHGAP8 (11727945_x_at) / Fold change /veh ARHGAP8 /// PRR5-ARHGAP8 (11727945_x_at) / RFU KRTAP5-7 /// NADSYN1 (11734609_at) / Fold change /veh KRTAP5-7 /// NADSYN1 (11734609_at) / RFU RASL12 (11751679_a_at) / Fold change /veh RASL12 (11751679_a_at) / RFU CDKN2B (11736163_a_at) / Fold change /veh CDKN2B (11736163_a_at) / RFU PRF1 (11729649_at) / Fold change /veh PRF1 (11729649_at) / RFU, ZNF638 /// ZNF638-IT1 / Fold change vs veh, ZNF638 /// ZNF638-IT1 / RFU, PANK3 / Fold change vs veh, PANK3 / RFU, SH3YL1 / Fold change vs veh, SH3YL1 / RFU, ZEB2 / Fold change vs veh, ZEB2 / RFU, NRIP1 / Fold change vs veh, NRIP1 / RFU, PTTG1IP / Fold change vs veh, PTTG1IP / RFU, CAPN2 / Fold change vs veh, CAPN2 / RFU, MED14 / Fold change vs veh, MED14 / RFU, SNORA58 / Fold change vs veh, SNORA58 / RFU, C1orf63 / Fold change vs veh, C1orf63 / RFU, LRRFIP1 / Fold change vs veh, LRRFIP1 / RFU, NDUFAF7 / Fold change vs veh, NDUFAF7 / RFU, SLC12A2 / Fold change vs veh, SLC12A2 / RFU, IBTK / Fold change vs veh, IBTK / RFU, ESF1 / Fold change vs veh, ESF1 / Fold change vs veh, TMEM50B / RFU, TAOK1 / Fold change vs veh, TAOK1 / RFU, ACBD3 / Fold change vs veh, ACBD3 / RFU, TMA16 / Fold change vs veh, TMA16 / RFU, RWDD3 / Fold change vs veh, RWDD3 / RFU, BCAT1 / Fold change vs veh, BCAT1 / RFU, EDEM3 / Fold change vs veh, EDEM3 / RFU, TMEM33 / Fold change vs veh, TMEM33 / RFU, WDR75 / Fold change vs veh, WDR75 / RFU, AHCTF1 / Fold change vs veh, AHCTF1 / RFU, TFRC / Fold change vs veh, TFRC / RFU, ZDHHC17 / Fold change vs veh, ZDHHC17 / RFU, NOM1 / Fold change vs veh, NOM1 / RFU, ARL8B / Fold change vs veh, ARL8B / RFU, ZBTB11 / Fold change vs veh, ZBTB11 / RFU, TAMM41 / Fold change vs veh, TAMM41 / RFU, KIAA1704 /// LOC100996395 / Fold change vs veh, KIAA1704 /// LOC100996395 / RFU, ING1 / Fold change vs veh, ING1 / RFU, TRMT61B / Fold change vs veh, TRMT61B / RFU, FUBP3 / Fold change vs veh, FUBP3 / RFU, TP53 / Fold change vs veh, TP53 / RFU, TNKS2 / Fold change vs veh, TNKS2 / RFU, ZFP14 / Fold change vs veh, ZFP14 / RFU, ACTR2 / Fold change vs veh, ACTR2 / RFU, PPP3R1 / Fold change vs veh, PPP3R1 / RFU, PIK3R1 / Fold change vs veh, PIK3R1 / RFU, HNRNPA1 / Fold change vs veh, HNRNPA1 / RFU, RNF170 / Fold change vs veh, RNF170 / RFU, ZNF28 / Fold change vs veh, ZNF28 / RFU, RNGTT / Fold change vs veh, RNGTT / RFU, OGT / Fold change vs veh, OGT / RFU, BRD1 / Fold change vs veh, BRD1 / RFU, MARS / Fold change vs veh, MARS / RFU, ZNF655 / Fold change vs veh, ZNF655 / RFU, FAHD1 / Fold change vs veh, FAHD1 / RFU, BDP1 / Fold change vs veh, BDP1 / RFU, LRRCC1 / Fold change vs veh, LRRCC1 / RFU, ARID1A / Fold change vs veh, ARID1A / RFU, ZNF146 / Fold change vs veh, ZNF146 / RFU, ZNF330 / Fold change vs veh, ZNF330 / RFU, GPN3 / Fold change vs veh, GPN3 / RFU, C9orf123 / Fold change vs veh, C9orf123 / RFU, N4BP2L2 / Fold change vs veh, N4BP2L2 / RFU, ARFIP1 / Fold change vs veh, ARFIP1 / RFU, FAM179B / Fold change vs veh, FAM179B / RFU, BCL10 / Fold change vs veh, BCL10 / RFU, UHRF1BP1L / Fold change vs veh, UHRF1BP1L / RFU, BET1 / Fold change vs veh, BET1 / RFU, CNOT2 / Fold change vs veh, CNOT2 / RFU, ZNF268 / Fold change vs veh, ZNF268 / Fold change vs veh, ZNF507 / RFU, DGCR2 / Fold change vs veh, DGCR2 / RFU, WDSUB1 / Fold change vs veh, WDSUB1 / Fold change vs veh, HSP90B1 /// MIR3652 / RFU, ADSS / Fold change vs veh, ADSS / RFU, GK / Fold change vs veh, GK / RFU, ZNF148 / Fold change vs veh, ZNF148 / RFU, TAF9 / Fold change vs veh, TAF9 / RFU, SLC1A5 / Fold change vs veh, SLC1A5 / RFU, SLMO2 / Fold change vs veh, SLMO2 / RFU, ABCC4 / Fold change vs veh, ABCC4 / RFU, LOC101060439 /// RAP1B / Fold change vs veh, LOC101060439 /// RAP1B / RFU, RFX7 / Fold change vs veh, RFX7 / RFU, GTPBP10 / Fold change vs veh, GTPBP10 / RFU, CNEP1R1 / Fold change vs veh, CNEP1R1 / RFU, BIVM-ERCC5 /// ERCC5 / Fold change vs veh, BIVM-ERCC5 /// ERCC5 / RFU, ILF3 / Fold change vs veh, ILF3 / RFU 11762660_at / Fold change /veh 11762660_at / RFU VCAN (11757783_s_at) / Fold change /veh VCAN (11757783_s_at) / RFU DDX43 (11728927_at) / Fold change /veh DDX43 (11728927_at) / RFU KRT8 (11758188_x_at) / Fold change /veh KRT8 (11758188_x_at) / RFU NKD1 (11759106_at) / Fold change /veh NKD1 (11759106_at) / RFU SRD5A1 (11742802_a_at) / Fold change /veh SRD5A1 (11742802_a_at) / RFU TPSAB1 /// TPSB2 (11721975_s_at) / Fold change /veh TPSAB1 /// TPSB2 (11721975_s_at) / RFU GSTM3 (11746129_a_at) / Fold change /veh GSTM3 (11746129_a_at) / RFU IL23R (11737362_x_at) / Fold change /veh IL23R (11737362_x_at) / RFU TMEM51 (11727254_a_at) / Fold change /veh TMEM51 (11727254_a_at) / RFU PIWIL2 (11732686_x_at) / Fold change /veh PIWIL2 (11732686_x_at) / RFU ORM1 (11744905_x_at) / Fold change /veh ORM1 (11744905_x_at) / RFU CCDC152 (11743942_at) / Fold change /veh CCDC152 (11743942_at) / RFU ECM1 (11717891_a_at) / Fold change /veh ECM1 (11717891_a_at) / RFU IL23R (11748794_a_at) / Fold change /veh IL23R (11748794_a_at) / RFU TNFAIP8L3 (11732012_x_at) / Fold change /veh TNFAIP8L3 (11732012_x_at) / RFU MBOAT4 (11741988_at) / Fold change /veh MBOAT4 (11741988_at) / RFU 11764193_at / Fold change /veh 11764193_at / RFU TMEM53 (11763286_at) / Fold change /veh TMEM53 (11763286_at) / RFU MAGEB2 (11727129_at) / Fold change /veh MAGEB2 (11727129_at) / RFU TMEM200A (11744735_a_at) / Fold change /veh TMEM200A (11744735_a_at) / RFU CCDC152 (11751479_a_at) / Fold change /veh CCDC152 (11751479_a_at) / RFU FAM211A (11726209_a_at) / Fold change /veh FAM211A (11726209_a_at) / RFU RGS16 (11746705_a_at) / Fold change /veh RGS16 (11746705_a_at) / RFU VCAN (11755009_s_at) / Fold change /veh VCAN (11755009_s_at) / RFU RHOB (11743442_s_at) / Fold change /veh RHOB (11743442_s_at) / RFU RGS16 (11720943_a_at) / Fold change /veh RGS16 (11720943_a_at) / RFU RGS16 (11720944_at) / Fold change /veh RGS16 (11720944_at) / RFU, VPS4B / Fold change vs veh, VPS4B / RFU, CREB1 / Fold change vs veh, CREB1 / RFU, DNAJC13 / Fold change vs veh, DNAJC13 / RFU, GNAQ / Fold change vs veh, GNAQ / RFU, CDK5R1 / Fold change vs veh, CDK5R1 / RFU, ZRANB3 / Fold change vs veh, ZRANB3 / RFU, CUL4A / Fold change vs veh, CUL4A / RFU, CCNY / Fold change vs veh, CCNY / RFU, UFL1 / Fold change vs veh, UFL1 / RFU, COG3 / Fold change vs veh, COG3 / RFU, DIAPH2 / Fold change vs veh, DIAPH2 / RFU, SKA2 / Fold change vs veh, SKA2 / RFU, AFF3 / Fold change vs veh, AFF3 / RFU, LMF1 / Fold change vs veh, LMF1 / RFU, IPO11 / Fold change vs veh, IPO11 / RFU, DFFB / Fold change vs veh, DFFB / RFU, FOXP1 / Fold change vs veh, FOXP1 / RFU, CARD8 / Fold change vs veh, CARD8 / RFU, STRN3 / Fold change vs veh, STRN3 / RFU, ADK / Fold change vs veh, ADK / RFU, RASSF2 / Fold change vs veh, RASSF2 / RFU, WIPF1 / Fold change vs veh, WIPF1 / RFU, LARP1B / Fold change vs veh, LARP1B / RFU, RASA1 / Fold change vs veh, RASA1 / RFU, RB1 / Fold change vs veh, RB1 / RFU, PPFIA1 / Fold change vs veh, PPFIA1 / RFU, MAT2A / Fold change vs veh, MAT2A / RFU, CCT5 / Fold change vs veh, CCT5 / RFU, WDR92 / Fold change vs veh, WDR92 / RFU, CUX1 / Fold change vs veh, CUX1 / RFU, TTC7A / Fold change vs veh, TTC7A / RFU, TMEM135 / Fold change vs veh, TMEM135 / RFU, DEPTOR / Fold change vs veh, DEPTOR / RFU, CPM / Fold change vs veh, CPM / RFU, DNAJB6 / Fold change vs veh, DNAJB6 / RFU, CACNA2D3 / Fold change vs veh, CACNA2D3 / RFU, DTX4 / Fold change vs veh, DTX4 / RFU, TFCP2 / Fold change vs veh, TFCP2 / RFU, GMCL1 /// GMCL1P1 / Fold change vs veh, GMCL1 /// GMCL1P1 / RFU, AEBP2 / Fold change vs veh, AEBP2 / RFU, SNHG1 /// SNORD22 /// SNORD25 /// SNORD26 /// SNORD27 /// SNORD28 /// SNORD29 /// SNORD31 / Fold change vs veh, SNHG1 /// SNORD22 /// SNORD25 /// SNORD26 /// SNORD27 /// SNORD28 /// SNORD29 /// SNORD31 / Fold change (Aza/veh), C12orf56 (ProbeSet 11735607_a_at) / Fold change (ACY-1035/veh), C12orf56 (ProbeSet 11735607_a_at) / Fold change (Aza/veh), FGFR1OP (ProbeSet 11751329_s_at) / Fold change (ACY-1035/veh), FGFR1OP (ProbeSet 11751329_s_at) / Fold change (Aza/veh), VPS36 (ProbeSet 11739960_a_at) / Fold change (ACY-1035/veh), VPS36 (ProbeSet 11739960_a_at) / RFU SYPL1 (11715823_x_at) / Fold change /veh SYPL1 (11715823_x_at) / RFU IGFBP7 (11715501_s_at) / Fold change /veh IGFBP7 (11715501_s_at) / RFU REEP3 (11722064_at) / Fold change /veh REEP3 (11722064_at) / RFU IGLL1 (11728026_x_at) / Fold change /veh IGLL1 (11728026_x_at): dose or concentration left out as unconfirmed. Particulars: ProbeSet 11727958_a_at; LIST B.

With `Nc1ccc(-c2cccs2)cc1NC(=O)c1ccc2c(c1)cc(C1CC1)n2CCN1CCOCC1` [ACY-1035], the “RFU, ING1” value worked out at 74.08 RFU.

The values are drawn from PMC5218480 (PLoS ONE, 2017).
